“Also recorded” adds a separate entry of the source.
Assays:
human SMCs = experiment: DNA synthesis assay ([3H]thymidine incorporation) in FBS-stimulated cultured SMCs; format: cell-based
Experimental: Human SMCs were explanted from umbilical cord arteries. Cells were cultured in DMEM (Invitrogen Life Technology, Breda, The Netherlands) with 10% (v/v) fetal bovine serum (FBS) with penicillin and streptomycin (Invitrogen). Cells were used at passages five to seven. […] To determine cellular viability, cells were washed with PBS and subsequently incubated in medium in the presence of 0.5-mg/ml 3-(4,5-dimethylthiazol-2-yl)-2,5-diphenyltetrazolium bromide (MTT; Sigma Diagnostics, St. Louis). After two hours, medium was discarded, formazan crystals were dissolved in isopropanol and optical density was measured at 590 nm. Apoptosis was induced by incubating cells for 24 hours in medium with 0.25 μM staurosporine (Sigma). Subsequently, SMCs were fixed, stained with Hoechst dye and the relative number of apoptotic nuclei was determined.
SMCs were seeded in 24-well plates at 1−4×10^4 cells per well and reached 60% to 70% confluency after 24 hours. SMCs were made quiescent by incubation for 24 hours in FBS-free medium. 6-MP was dissolved in dimethylsulfoxide and applied one hour before FBS stimulation. SMCs were stimulated for 24 hours with 10% (v/v) FBS and subsequently cells were labeled for 18 hours with 0.25 μCi/well [methyl-3H]thymidine (Amersham Biosciences, Buckinghamshire, UK). Incorporated radioactivity was precipitated for 30 min at 4° C. with 10% (w/v) trichloroacetic acid, washed twice with 5% (w/v) trichloroacetic acid, and dissolved in 0.5 N NaOH (0.5 mL per well). Incorporated [^3H]thymidine was measured by liquid-scintillation counting.
(§1) The following small interfering (si)RNA sequences were used: Nur77 siRNA, 5′-CAG UCC AGC CAU GCU CCU C dTdT-3′, as described previously^20, and control siRNA, 5′-CAG ACG AGC CUU GCU CGU C dTdT-3′ (Ambion Inc., Austin, Tex.). Five μg of siRNA was transfected into 0.5−1×10^6 SMCs, using Nucleofector reagent for SMCs (Amaxa) as per the manufacturer's recommendations. Total mRNA was isolated five days after transfection, using the absolutely mRNA miniprep kit (Stratagene, La Jolla, Calif.). Subsequent cDNA synthesis was performed using the iScript cDNA synthesis kit (Biorad, Hercules, Calif.). Real-time polymerase chain reaction (PCR) was performed using SYBR green mix (Biorad) in the MyIQ System (Biorad). Primers for Nur77 were as follows: (forward) 5′-[…]-3′ and (reverse) 5′-[…]-3′. As a control for equal amount of first strand cDNA in different samples we corrected for Ribosomal Phosphoprotein (P0) mRNA levels, which were determined with the following primers (forward) 5′-[…]-3′ and (reverse) 5′-[…]-3′.
as §1, with “iscript” for “iScript”

[1] = tested on: saphenous vein smooth muscle cells; experiment: Cyclic stretch-induced DNA synthesis ([3H]-thymidine incorporation) in venous SMCs; format: cell-based, human
Experimental: To study stretch-induced responses, smooth muscle cells were seeded in 6-well plates containing collagen Icoated flexible membranes (BioFlex® culture plates, Dunn Labortechnik GmbH, Asbach, Germany) and were stretched in the Flexercell FX3000 apparatus (Dunn Labortechnik) for 1, 2, 4, 6, or 24 h at 10% stretch at 0.5 Hz or served as control (without stretch). Silicone-based lubricant was applied to prevent friction between the membrane and loading post.
Smooth muscle cells were seeded in 6-well stretch plates and when wells were confluent, smooth muscle cells were made quiescent for 16 h in medium containing 0.5% (v/v) FBS.
The plates were transferred into the Loading Station™ and stretched for 24 h. Control plates, without stretch, were cultured under identical conditions. Thereafter, cells were labeled for 4 h with 0.5 microCi/mL [methyl-^3H]-thymidine (Amersham Biosciences).
Incorporated radioactivity was precipitated for 30 min at 4° C. with 10% (wt/v) trichloroacetic acid, washed twice with 5% (wt/v) trichloroacetic acid and dissolved in 0.5N NaOH. [^3H]-thymidine was measured by liquid scintillation counting.
When cells were infected with mock- or TR3-containing adenovirus (3×10^8 plaque-forming units) for 2 h, the cells were allowed to recover for 24 h in complete medium before they were made quiescent. Agonist treatment (6-MP) was initiated 1 h prior to stretch with 0, 1, 10, 25 microM C-DIM (stock at 40 mM in DMSO).
The following small interfering RNA (siRNA) sequences were used: TR3 siRNA, 5′-CAG UCC AGC CAU GCU CCU C dTdT-3′, and mutated control siRNA, 5′-CAG ACG AGC CUU GCU CGU C dTdT-3′ (Ambion Inc., UK). Per Flexerplate-well 1 μg of siRNA was transfected into 5×10^5 SMCs using Nucleofector reagent for SMCs (Amaxa GmbH, Cologne, Germany) as per the manufacturer's recommendations and subsequently the cells were placed in the stretch plates and were treated as described above.

Sc1ncnc2nc[nH]c12 [6-MP, 6-mercaptopurine]
DNA synthesis in SMCs (human SMCs; 25 μM or 50 μM): reduced
inhibition of DNA synthesis (human SMCs; SMCs transfected with Nur77 (TR3)-specific siRNA): 41%
inhibition of DNA synthesis (human SMCs; SMCs transfected with control siRNA): 61%
DNA synthesis in SMCs (human SMCs; increasing concentrations, 10% FBS): inhibits DNA synthesis
effect on stretch-induced DNA synthesis after TR3 knockdown ([1]; venous SMCs transfected with TR3-siRNA): completely abolishes the effect of 6-MP; also recorded: no longer inhibits DNA synthesis
stretch-induced DNA synthesis ([1]; venous SMCs, 24 h cyclic stretch, 25 μM 6-MP): completely inhibited
stretch-induced DNA synthesis ([3H]-thymidine incorporation) ([1]; venous SMCs, 24 h cyclic stretch, 6-MP at various concentrations): reduced stretch-mediated proliferation in a dose-dependent manner

Source: patent US20090035345A1, “Nuclear Receptors Agonists for Treatment of Atherosclerosis and/or Related Cardiovascular Disease” (ACADEMISCH MEDISCH CENTRUM, BUREAU, priority 2005, published 2009)
